# In patent US4973578A, “Synthetic peptides derived from the alpha-subunit of human lycoprotein hormones” (Mayo Foundation for Medical Education and Research, priority 1988, dated 1990):
# Residues, ends and D or L forms follow the SMILES beside them.
# Target: T1, TSH receptor on human thyroid membranes (Homo sapiens, UniProt P16473)
# T1 construct: Thyroid tissue obtained at surgery from patients with Graves' disease was prepared as described by Takahashi et al; from tissue; host or cells: human thyroid tissue from Graves' disease patients, 2000xg membrane fraction
# Experiment: TSH radioreceptor assay: inhibition of 125I-bTSH binding to human thyroid membrane preparations
# Experimental: Thyroid tissue obtained at surgery from patients with Graves' disease was prepared as described by Takahashi et al., J. Clin. Endocrinol. Metab. 47:870 (1978), the disclosure of which is incorporated herein. Briefly, the tissue was dissected free of fibrous material, minced with scissors, and homogenized with Polytron homogenizer. The 2000×g fraction was collected by centrifugation, washed and resuspended in 40 mM Tris, 0.1% Bovine Serum Albumin (BSA) pH 7.4 at a concentration of 100 mg equivalents of wet tissue per milliliter. The preparation was stored at -70° C. until used for assay.
# Highly purified bovine TSH (30 IU/mg, supplied by Dr. J. G. Pierce, UCLA) was radio-iodinated (Na^125 I, Amersham, Chicago) by a gentle lactoperoxidase procedure described by Takahashi et al., supra, then purified by Sephadex G-100 chromatography.
# The membrane assay incubation mixture consisted of […] of the 2000×g membrane fraction, 0.125 ng ^125 I bTSH (approximately 20,000 cpm, 5×10^-12 M), 100 ul of 1% Triton X-100 and noted amounts of test materials in a final volume of 0.5 ml of 40 mM Tris-HCl pH 7.4 plus 0.1% BSA. Nonspecific binding was determined by addition of excess unlabeled bTSH (200 mU/ml, Sigma, St. Louis). After 2 hrs incubation at 25° C., 200 ul of 5 mg/ml bovine gamma globulin and 1 ml 30% polyethylene glycol 6000 (Baker, Phillipsburg, N.J.) in 1M NaCl was added to each tube and the tubes centrifuged at 4000 rpm for 25 minutes. The supernatants were aspirated and pellets counted in a gamma counter. Specific binding averaged 25% of total counts.
# FIG. 1 reports 5×10^-12 M labeled bTSH incubated with 10 mg equivalents (wet weight) of 2000×g fraction of thyroid membranes with varying concentrations of unlabeled TSH or synthetic α-subunit peptides. Nonspecific binding was determined in the presence of excess unlabeled TSH.
# T1 sequence (P16473 21-764): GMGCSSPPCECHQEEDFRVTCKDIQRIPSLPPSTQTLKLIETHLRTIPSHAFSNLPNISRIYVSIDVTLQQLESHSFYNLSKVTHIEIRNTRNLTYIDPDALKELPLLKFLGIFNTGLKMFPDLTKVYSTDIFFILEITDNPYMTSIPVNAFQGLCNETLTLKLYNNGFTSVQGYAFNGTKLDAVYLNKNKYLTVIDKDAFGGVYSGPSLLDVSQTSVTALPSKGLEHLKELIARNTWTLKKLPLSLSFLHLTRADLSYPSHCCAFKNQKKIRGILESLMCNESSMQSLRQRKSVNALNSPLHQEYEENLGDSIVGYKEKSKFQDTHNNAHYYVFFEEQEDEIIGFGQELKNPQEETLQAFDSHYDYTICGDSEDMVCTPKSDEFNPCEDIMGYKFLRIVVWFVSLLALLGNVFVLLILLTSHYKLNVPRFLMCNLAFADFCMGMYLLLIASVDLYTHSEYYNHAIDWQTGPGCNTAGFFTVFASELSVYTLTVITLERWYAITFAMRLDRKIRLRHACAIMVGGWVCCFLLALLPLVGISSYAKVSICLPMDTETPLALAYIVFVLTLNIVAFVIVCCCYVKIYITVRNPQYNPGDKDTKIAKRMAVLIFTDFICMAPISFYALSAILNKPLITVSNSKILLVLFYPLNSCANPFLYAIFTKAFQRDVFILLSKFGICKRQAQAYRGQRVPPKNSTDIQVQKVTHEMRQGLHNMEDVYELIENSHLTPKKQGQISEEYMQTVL
smiles,measurement,setting,value
"CSCC[C@H](NC(=O)[C@H](CS)NC(=O)[C@H](CCC(N)=O)NC(=O)[C@@H](N)CC(C)C)C(=O)NCC(=O)N[C@@H](CS)C(=O)N[C@@H](CS)C(=O)N[C@@H](Cc1ccccc1)C(=O)N[C@@H](CO)C(=O)N[C@@H](CCCNC(=N)N)C(=O)N[C@@H](C)C(=O)N[C@@H](Cc1ccc(O)cc1)C(=O)N1CCC[C@H]1C(=O)N[C@H](C(=O)N1CCC[C@H]1C(=O)N[C@@H](CC(C)C)C(=O)N[C@@H](CCCNC(=N)N)C(=O)N[C@@H](CO)C(=O)N[C@@H](CCCCN)C(=O)N[C@@H](CCCCN)C(=O)N[C@H](C(N)=O)[C@@H](C)O)[C@@H](C)O [α26-46, Leu--Gln--Cys--Met--Gly--Cys--Cys--Phe--Ser--Arg--Ala--Tyr--Pro--Thr--Pro--Leu--Arg--Ser--Lys--Lys--Thr--(NH2)] (H-LQCMGCCFSRAYPTPLRSKKT-NH2)",displacement of 125I-bTSH label,"at concentrations greater than 1×10^-5 m, FIG. 1",more than 80%
same,IC50,"human thyroid membrane homogenates, ± S.E., read-out: bTSH ED50 (effective dose necessary to inhibit binding of 125I-bTSH by 50%)",10.8 ± 0.3 µM
same,"inhibition of 125I-bTSH binding, result in words","human thyroid membranes, FIG. 1",dose dependent inhibition
